This assay deals with T1, PadL (NpPadL) (Novosphingobium pentaromativorans, UniProt G6EAN6).
T1 construct: gene NSU_1434; padL expressed from pET-28b (T7, IPTG) in E. coli BL21 cells; also pHGE-Ptac complementation of delta-padL US6-1; signal peptide (residues 1-45) removed only in the model
T1 sequence (G6EAN6 46-450): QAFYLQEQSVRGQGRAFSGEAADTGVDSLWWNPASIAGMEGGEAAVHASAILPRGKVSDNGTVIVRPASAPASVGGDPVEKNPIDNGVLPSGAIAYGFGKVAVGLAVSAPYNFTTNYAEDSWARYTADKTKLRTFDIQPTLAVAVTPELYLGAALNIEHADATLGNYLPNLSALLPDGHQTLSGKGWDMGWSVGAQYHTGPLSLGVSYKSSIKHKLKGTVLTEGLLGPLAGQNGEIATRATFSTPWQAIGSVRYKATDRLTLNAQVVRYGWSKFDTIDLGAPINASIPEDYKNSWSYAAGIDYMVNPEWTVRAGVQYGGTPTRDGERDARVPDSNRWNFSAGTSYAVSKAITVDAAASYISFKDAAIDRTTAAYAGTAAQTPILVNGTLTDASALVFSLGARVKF
Nature of the assay: uptake by intact cells, confocal fluorescence of intracellular phenanthrene. The assay is classed as cell-based. The note with it: E. coli BL21/pET28b-padL, LB medium, 200 mg/L phenanthrene, IPTG induction, 37 °C.

Experimental findings from publication PMC11837497, “A novel FadL family outer membrane transporter is involved in the uptake of polycyclic aromatic hydrocarbons” (Applied and Environmental Microbiology, 2025) are described below.

On to `c1ccc2c(c1)ccc1ccccc12` [phenanthrene], for which the “uptake by intact cells, confocal fluorescence of intracellular phenanthrene” value is “E. coli BL21 can be endowed with an ability to assimilate phenanthrene after heterologous expression of PadL”.
